In PMC5439667, “Thermal stability and kinetic constants for 129 variants of a family 1 glycoside hydrolase reveal that enzyme activity and stability can be separately designed” (PLoS ONE, 2017):

Target: BglB (Paenibacillus polymyxa, UniProt P22505)
Assay: Michaelis-Menten kinetics of […]-nitrophenol release (as in the previous study)
Type: biochemical
Conditions: wild type, batched replicates re-measured here; conditions of the kinetic assay not printed in the main text

Sequence of BglB (P22505 whole entry): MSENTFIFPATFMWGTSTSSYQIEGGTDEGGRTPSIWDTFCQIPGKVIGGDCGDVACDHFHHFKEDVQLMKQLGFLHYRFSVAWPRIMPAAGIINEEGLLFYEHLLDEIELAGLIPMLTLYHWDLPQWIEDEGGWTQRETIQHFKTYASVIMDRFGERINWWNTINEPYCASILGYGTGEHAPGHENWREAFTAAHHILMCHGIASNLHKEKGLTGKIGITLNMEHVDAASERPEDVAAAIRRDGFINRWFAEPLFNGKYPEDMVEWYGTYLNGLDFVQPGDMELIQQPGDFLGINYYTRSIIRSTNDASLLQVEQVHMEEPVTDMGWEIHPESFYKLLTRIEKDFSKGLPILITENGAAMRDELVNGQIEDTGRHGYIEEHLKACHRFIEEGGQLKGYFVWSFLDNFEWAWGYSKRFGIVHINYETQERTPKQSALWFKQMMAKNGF

SMILES: O=[N+]([O-])c1ccc(O[C@@H]2O[C@H](CO)[C@@H](O)[C@H](O)[C@H]2O)cc1 [pNPG]
- KM: batched replicates of the native BglB sequence
